Data reported in US8835462B2, “Macrocyclic picolinamides as fungicides” (Dow AgroSciences LLC, priority 2012, dated 2014).

Legend:
Assay type in all cases: in vivo
[1] = test system: Venturia inaequalis; assay: Apple scab (VENTIN) fungicidal activity; settings: 24 h, 1 Day Protectant, read-out: Disease Control VENTIN 1DP
Method: Technical grades of materials were dissolved in acetone, which were then mixed with nine volumes of water containing 110 ppm Triton X-100. The fungicide solutions were applied onto wheat seedlings using an automated booth sprayer to run-off. All sprayed plants were allowed to air dry prior to further handling. Wheat plants (variety Yuma) were grown from seed in a greenhouse in 50% mineral soil/50% soil-less Metro mix until the first leaf was fully emerged, with 7-10 seedlings per pot. These plants were inoculated with an aqueous spore suspension of Septoria tritici either prior to or after fungicide treatments. After inoculation the plants were kept in 100% relative humidity (one day in a dark dew chamber followed by two to three days in a lighted dew chamber at 20° C.) to permit spores to germinate and infect the leaf. The plants were then transferred to a greenhouse set at 20° C. for disease to develop. When disease symptoms were fully expressed on the 1st leaves of untreated plants, infection levels were assessed on a scale of 0 to 100 percent disease severity. Percent disease control was calculated using the ratio of disease severity on treated plants relative to untreated plants. Evaluation of Fungicidal Activity: Apple Scab (Venturia Inaequalis; Bayer Code […]) Apple seedlings (variety McIntosh) were grown in soil-less Metro mix, with one plant per pot. Seedlings with two expanding young leaves at the top (older leaves at bottom of the plants were trimmed) were used in the test. Plants were inoculated with a spore suspension of Venturia inaequalis 24 hr after fungicide treatment and kept in a 22° C. dew chamber with 100% RH for 48 hr, and then moved to a greenhouse set at 20° C. for disease to develop. Fungicide formulation, application and disease assessment on the sprayed leaves followed the procedures as described in the Example A.

[2] = test system: Uncinula necator; assay: Grape powdery mildew (UNCINE) fungicidal activity; settings: Erysiphe necator, 24 h, 1 Day Protectant, read-out: Disease Control UNCINE 1DP
Method: Technical grades of materials were dissolved in acetone, which were then mixed with nine volumes of water containing 110 ppm Triton X-100. The fungicide solutions were applied onto wheat seedlings using an automated booth sprayer to run-off. All sprayed plants were allowed to air dry prior to further handling. Wheat plants (variety Yuma) were grown from seed in a greenhouse in 50% mineral soil/50% soil-less Metro mix until the first leaf was fully emerged, with 7-10 seedlings per pot. These plants were inoculated with an aqueous spore suspension of Septoria tritici either prior to or after fungicide treatments. After inoculation the plants were kept in 100% relative humidity (one day in a dark dew chamber followed by two to three days in a lighted dew chamber at 20° C.) to permit spores to germinate and infect the leaf. The plants were then transferred to a greenhouse set at 20° C. for disease to develop. When disease symptoms were fully expressed on the 1st leaves of untreated plants, infection levels were assessed on a scale of 0 to 100 percent disease severity. Percent disease control was calculated using the ratio of disease severity on treated plants relative to untreated plants. Evaluation of Fungicidal Activity: Grape Powdery Mildew (Uncinula Necator; Bayer Code […]) Grape seedlings (variety Carignane) were grown in soil-less Metro mix, with one plant per pot, and used in the test when approximately one month old. Plants were inoculated 24 hr after fungicide treatment by shaking spores from infected leaves over test plants. Plants were maintained in a greenhouse set at 20° C. until disease was fully developed. Fungicide formulation, application and disease assessment on the sprayed leaves followed the procedures as described in the Example A.

[3] = test system: Blumeria graminis f. sp. tritici; assay: Wheat powdery mildew (ERYSGT) fungicidal activity; settings: 24 h, 1 Day Protectant, read-out: Disease Control ERYSGT 1DP
Method: Technical grades of materials were dissolved in acetone, which were then mixed with nine volumes of water containing 110 ppm Triton X-100. The fungicide solutions were applied onto wheat seedlings using an automated booth sprayer to run-off. All sprayed plants were allowed to air dry prior to further handling. Wheat plants (variety Yuma) were grown from seed in a greenhouse in 50% mineral soil/50% soil-less Metro mix until the first leaf was fully emerged, with 7-10 seedlings per pot. These plants were inoculated with an aqueous spore suspension of Septoria tritici either prior to or after fungicide treatments. After inoculation the plants were kept in 100% relative humidity (one day in a dark dew chamber followed by two to three days in a lighted dew chamber at 20° C.) to permit spores to germinate and infect the leaf. The plants were then transferred to a greenhouse set at 20° C. for disease to develop. When disease symptoms were fully expressed on the 1st leaves of untreated plants, infection levels were assessed on a scale of 0 to 100 percent disease severity. Percent disease control was calculated using the ratio of disease severity on treated plants relative to untreated plants. Evaluation of Fungicidal Activity: Wheat Powdery Mildew (Blumeria Graminis f. sp. Tritici; Synonym: Erysiphe graminis f. sp. Tritici; Bayer Code […]) Wheat plants (variety Yuma) were grown from seed in a greenhouse in 50% mineral soil/50% soil-less Metro mix until the first leaf was fully emerged, with 7-10 seedlings per pot. These plants were inoculated by dusting with infected stock plants 24 hr after fungicide treatments. After inoculation the plants were kept in a greenhouse set at 20° C. for disease to develop. Fungicide formulation, application and disease assessment on the sprayed leaves followed the procedures as described in the Example A.

[4] = test system: Puccinia triticina; assay: Fungicide mobility (dropline mobility test), wheat brown rust (PUCCRT); settings: 1 ug/leaf, disease-free zone as percent of distance from marked line to leaf tip; for Dropline Mobility Test PUCCRT 1 DPM: 1 Day Protectant Mobility; for Dropline Mobility Test PUCCRT 3 DCM: 3 Day Curative Mobility
Method: Evaluation of Fungicide Mobility: Wheat Brown Rust (Puccinia Triticina; Synonym: Puccinia recondita f. sp. Tritici; Bayer Code PUCCRT):
“Yuma” wheat seedlings were used in the test. One mg of compound was dissolved in 9 μl of EC blank (emulsifiable concentrate) and 500 μl of acetone. Acetone was then evaporated overnight by leaving the vial open in a fume hood. Two milliliters of water containing 110 ppm Triton X-100 was added to each vial to prepare application solutions. A […] drop of formulated material was applied to a marked line on the adaxial surface 5 cm from the leaf tip of the primary leaves. The primary leaves were kept in a horizontal position. Each treatment had 6 replicates. Plants were inoculated with PUCCRT 1-day after (1DPM) or 3-day prior to (3DCM) compound applications. When rust was fully expressed on primary leaves on control plants, the zone of treated leaves that was disease-free in the acropetal direction was measured with a ruler and converted to percent of the distance from marked line to leaf tip.

Compound | pest or weed control at 100 ppm [1] [%] | pest or weed control at 100 ppm [2] [%] | pest or weed control at 100 ppm [3] [%] | Dropline Mobility Test PUCCRT 1 DPM [4] | Dropline Mobility Test PUCCRT 3 DCM [4]
COc1ccnc(C(=O)N[C@H]2COC[C@H](Cc3ccccc3)[C@@H](OC(=O)c3ccccc3)[C@H](C)OC2=O)c1OCOC(C)=O [Compound 37] | 0 to 80 | 0 to 80 | 0 to 80 | B (More than 0-Less than 80) | –
COc1ccnc(C(=O)N[C@H]2COC[C@H](Cc3ccccc3)[C@@H](OCC(C)C)[C@H](C)OC2=O)c1OCOC(=O)C(C)(C)C [Compound 7] | 0 to 80 | 80 to 100 | 0 to 80 | B (More than 0-Less than 80) | B (More than 0-Less than 80)
COc1ccnc(C(=O)N[C@H]2COC[C@H](Cc3ccccc3)[C@@H](OC3CCCC3)[C@H](C)OC2=O)c1OCOC(=O)C(C)C [Compound 108] | 80 to 100 | 80 to 100 | – | – | –
COc1ccnc(C(=O)N[C@H]2COC[C@H](Cc3ccccc3)[C@@H](OCC(C)C)[C@H](C)OC2=O)c1O [Compound 2, N-((3S,7S,8R,9S)-7-benzyl-8-isobutoxy-9-methyl-2-oxo-1,5-dioxonan-3-yl)-3-hydroxy-4-methoxypicolinamide] | 80 to 100 | 0 to 80 | – | B (More than 0-Less than 80) | B (More than 0-Less than 80)
CCCCCO[C@@H]1[C@@H](Cc2ccccc2)COC[C@H](NC(=O)c2nccc(OC)c2OCOC(C)=O)C(=O)O[C@H]1C [Compound 26] | 80 to 100 | 80 to 100 | 0 to 80 | B (More than 0-Less than 80) | B (More than 0-Less than 80)
COc1ccnc(C(=O)N[C@H]2COC[C@H](Cc3ccccc3)[C@@H](OCCC(=O)N(C)C)[C@H](C)OC2=O)c1OCOC(C)=O [Compound 15] | 0 to 80 | 0 to 80 | 0 to 80 | – | –
COc1ccnc(C(=O)N[C@H]2COC[C@H](Cc3ccccc3)[C@@H](OC(=O)C3CC3)[C@H](C)OC2=O)c1OCOC(C)=O [Compound 38] | 0 to 80 | 0 to 80 | 0 to 80 | B (More than 0-Less than 80) | B (More than 0-Less than 80)
CCCO[C@@H]1[C@@H](Cc2ccccc2)COC[C@H](NC(=O)c2nccc(OC)c2OCOC(C)=O)C(=O)O[C@H]1C [Compound 22] | 80 to 100 | 80 to 100 | 80 to 100 | B (More than 0-Less than 80) | B (More than 0-Less than 80)
COc1ccnc(C(=O)N[C@H]2COC[C@H](Cc3ccccc3)[C@@H](OC3CCCC3)[C@H](C)OC2=O)c1OC(C)=O [Compound 107] | 0 to 80 | 0 to 80 | – | – | –
COCCCO[C@@H]1[C@@H](Cc2ccccc2)COC[C@H](NC(=O)c2nccc(OC)c2OCOC(C)=O)C(=O)O[C@H]1C [Compound 16] | 0 to 80 | 0 to 80 | 80 to 100 | – | –
COc1ccnc(C(=O)N[C@H]2COC[C@H](Cc3ccccc3)[C@@H](Oc3ccccc3)[C@H](C)OC2=O)c1OCOC(C)=O [Compound 40] | 80 to 100 | 0 to 80 | 0 to 80 | B (More than 0-Less than 80) | B (More than 0-Less than 80)
COc1ccnc(C(=O)N[C@H]2COC[C@H](Cc3ccccc3)[C@@H](OCCC(C)OC)[C@H](C)OC2=O)c1OCOC(C)=O (stereo partly shown) [Compound 46] | 80 to 100 | 0 to 80 | – | A (80-100) | A (80-100)
COc1ccnc(C(=O)N[C@H]2COC[C@H](Cc3ccccc3)[C@@H](OCC(C)C)[C@H](C)OC2=O)c1OCOC(=O)C(C)C [Compound 3] | 0 to 80 | 80 to 100 | 80 to 100 | B (More than 0-Less than 80) | B (More than 0-Less than 80)
COc1ccnc(C(=O)N[C@H]2COC[C@H](Cc3ccccc3)[C@@H](OCCCC(F)(F)F)[C@H](C)OC2=O)c1OCOC(C)=O [Compound 23] | 0 to 80 | 0 to 80 | 80 to 100 | B (More than 0-Less than 80) | B (More than 0-Less than 80)
COc1ccnc(C(=O)N[C@H]2COC[C@H](Cc3ccccc3)[C@@H](OCC(C)C)[C@H](C)OC2=O)c1OC(=O)OC(C)C [Compound 10, 2-(((3S,7S,8R,9S)-7-benzyl-8-isobutoxy-9-methyl-2-oxo-1,5-dioxonan-3-yl)carbamoyl)-4-methoxypyridin-3-yl isopropyl carbonate] | 80 to 100 | 0 to 80 | 0 to 80 | B (More than 0-Less than 80) | B (More than 0-Less than 80)
COc1ccnc(C(=O)N[C@H]2COC[C@H](Cc3ccccc3)[C@@H](OCCCc3ccccc3)[C@H](C)OC2=O)c1OCOC(C)=O [Compound 34] | 80 to 100 | 0 to 80 | 0 to 80 | B (More than 0-Less than 80) | –
COc1ccnc(C(=O)N[C@H]2COC[C@H](Cc3ccccc3)[C@@H](OCC(F)F)[C@H](C)OC2=O)c1OCOC(C)=O [Compound 44] | 0 to 80 | 0 to 80 | – | B (More than 0-Less than 80) | B (More than 0-Less than 80)
